Molecules are shown by their SMILES.

Consider `COc1cc(Oc2ccc(S(C)(=O)=O)cn2)cc2cc(C3=NCC(CC(C)(C)O)S3)[nH]c12` (centres undefined), for which the melting point fell in the range of 171 to 173 °C. `COCCN1CCN(c2c(F)cc(N3C[C@H](CNC(C)=O)OC3=O)cc2F)CC1` gave a melting point of 162 to 164 °C.

In turn, `COc1cc(OCc2ccccc2)ccc1C(=O)c1cc(Cl)ccc1N` gave a melting point of 97 to 98 °C. The result for `C=CCc1c(O)ccc2ncccc12` reads 162 to 164 °C; that for `C=CCn1c(OC)n[nH]c1=O`, 111 °C; that for `Cc1cccc(-c2nc(Cl)cc(Cl)n2)c1`, 80 to 81 °C. On to `CCOC(=O)CNc1cc(F)ccc1[N+](=O)[O-]`, for which the melting point is 194 to 195 °C. The result for `O=C(Nc1ccc(Oc2ccnc(N3CCC(F)(F)CC3)n2)c2ccccc12)c1cc(F)cc(N2CCCCC2)c1` reads 172 to 174 °C. Turning to `O=c1c2cnc(-c3ccccc3)nc2sn1CCc1ccccn1`, the melting point was 132 to 133 °C. As for `CC1(C)Cc2cc(C3=NNC(=O)C4CCC34)ccc2NC1=O` (centres undefined), the figure is 301 to 302 °C. `CN(C)/C=N/c1nc(=O)n(C(=O)NCc2ccccc2)cc1F` displayed a melting point of 147 to 150 °C. The result for `CCCCC(C)c1cc(O)c2c(c1)OC(C)(C)CC2C1=CCN(CCc2ccccc2)CC1` (centres undefined) reads 141 to 143 °C. `CN(C)C=Nc1[nH]nc(Nc2cccc(Cl)c2)c1C#N` showed a melting point of more than 260 °C. In the case of `Nc1cccc(-c2ccc(CCN(CC3CCCCC3)CC3CCCCC3)cc2)n1`, the melting point lay within 75 to 85 °C. For the compound `CC(O)c1cccc(S(N)(=O)=O)c1` (centres undefined), the melting point was 137 to 139 °C. Consider `COc1ccc(C(=O)CC2CCCC2)c(Cl)c1Cl`, for which the melting point fell in the range of 60 to 61.5 °C. `Cc1cc(Nc2ccccc2C(=O)O)n(-c2ccccn2)n1` registered a melting point of 190 to 193 °C. `COC(=O)CSc1c(C)cc(C(O)(C(F)(F)F)C(F)(F)F)cc1C`: the melting point is 99 to 101 °C. Consider `COc1cc2ncnc(N3CCN(C(=S)Nc4cccc(C(C)C)c4)CC3)c2cc1OC`, for which the melting point is 169 to 171 °C.

For the compound `Cc1c(CCNC(=O)OC(C)(C)C)c2cc(S(=O)(=O)c3ccccc3)ccc2n1C`, the melting point fell in the range of 151 to 155 °C. As for `CON=C(C)c1cccc(NC(=O)NCC(=O)N(C)c2ccc(Cl)c(COc3cccc4ccc(C)nc34)c2Cl)c1`, the melting point lay within 218 to 224 °C. The compound `COc1cc2oc3ccc(C#N)cc3c2cc1F` returned a melting point of 206 to 208 °C. `CC(C)=CCCC(C)=CCCC(C)=CC=CC(C)=CC(N)=O` showed a melting point of 63 to 65 °C. As for `O=C(Cc1ccc2ccccc2c1)N[C@H]1C[C@H](C(=O)O)Nc2cc(Cl)cc(Cl)c21` (relative stereo), the figure is 217 to 219 °C. As for `C#CCN1C(=O)COc2cc(F)ccc21`, the figure is 98 to 100 °C; as for `Cc1ncsc1C(O)c1cccc(N(C)C)c1` (centres undefined), 135 to 138 °C. The result for `Cc1oc(-c2ccccc2)nc1CCC(=O)c1ccc(CC2SC(=O)NC2=O)cc1` (centres undefined) reads 145 to 146 °C; that for `CC(C)(C)c1ccc(N2CCCN(c3cc[nH]c(=S)c3C#N)CC2)cc1`, 257 to 258 °C; that for `O=S(=O)(CC1CS1)c1ccc(Oc2ccccc2)cc1` (centres undefined), 99 to 101 °C. With `CCN1CCN(Cc2ccc(-c3nc4cc(OC)cc(OC)c4c(=O)[nH]3)cc2)CC1`, the melting point lay in the range of 278 to 280 °C. With `COc1c(C(C)=O)cnc2c([N+](=O)[O-])cccc12`, the melting point is 100 to 105 °C. Consider `Cc1nccn1CCCCC(=O)NCc1ccc(Cl)cc1`, for which the melting point lay in the range of 72 to 75 °C.

On to `CN1CCN(c2ccc(-c3cc(-c4c(-c5ccccn5)nc5ccccn45)ccn3)cc2)CC1`, for which the melting point was 150 °C. As for `CC(C)(C)OC(=O)N[C@H]1C=C[C@@H](CO)C1`, the figure is 68 to 70 °C; as for `COc1ccc2nc(Cl)c(Cl)nc2c1`, 156 to 159 °C; as for `C#CC[C@@H](N)c1nc2cc(Cl)ccc2c(=O)n1Nc1ccccc1`, 175 to 180 °C. In the case of `CCCc1c(OCC(=O)O)ccc(C(C)=O)c1O`, the melting point lay within 128 to 130 °C.

As for `C(=Cc1nc2ccccc2o1)c1ccccc1`, the melting point is 78 to 79 °C. Compound `CC(Br)c1ccc2c(-c3ccccc3)onc2c1` (centres undefined) registered a melting point of 99 to 102 °C. `CC(C)(C)c1ccc(Sc2ccsc2CN(O)C(N)=O)cc1`: the melting point fell in the range of 144 to 146 °C. Turning to `CCCCc1cn(Cc2ccc(-c3ccccc3C(=O)O)cc2)c2c(c1=O)CC(C)CC2` (centres undefined), the melting point amounted to 255 °C. Compound `COc1cc2c(cc1Nc1ncc(Cl)c(Nc3ccccc3S(=O)(=O)N(C)C)n1)CCN(Cc1nccn1C)CC2` registered a melting point of 79 to 86 °C. `c1ccc(Cn2cccc2-c2nc(Nc3ccc(-c4ccccc4)cc3)nc(Nc3ccc(-c4ccccc4)cc3)n2)cc1`: the melting point is 185 to 186 °C.

With `Oc1cc(OCc2ccccn2)ccc1/C=C/c1cc(/C=C/c2ccc3cc[nH]c3c2)n[nH]1`, the melting point was 202 to 204 °C. Compound `Nc1ccc(OC23CC4CC(CC(C4)C2)C3)cc1` displayed a melting point of 172 to 175 °C. Turning to `CC(C)(C)c1ccc(-c2c(-c3ccncc3)sc3nc(=O)cc(N)n23)cc1`, the melting point is 259 to 262 °C. Consider `O=C(Nc1ccc(C[C@H](NS(=O)(=O)N2CCCCC2)C(=O)O)cc1)c1c(Cl)cncc1Cl`, for which the melting point stood at 208 °C. For `CCCCCNc1nc(C)c(C(=O)c2ccc(N)c([N+](=O)[O-])c2)s1`, the melting point was 165 to 169 °C. The result for `CN1C(=O)N(C[C@@H](CCS(=O)(=O)c2ccc(Oc3ccc(F)cc3)cc2)N(O)C=O)C(=O)C1(C)C` reads 105 °C; that for `O=C(O)Cc1ccccc1CC(=O)Nc1cccc(/C=C/c2nc(C3CCC3)cs2)c1`, 160 to 162 °C; that for `COc1cccc(OCCCSCCC(=O)O)c1`, 53 to 55 °C. As for `CC1Cc2c(N3CCN(CC(F)(F)F)CC3)c(F)cc3c(=O)c(C(=O)O)cn1c23` (centres undefined), the figure is 287 to 289 °C; as for `CCC1=Nc2cc(CO)ccc2C(=O)C1`, 254 to 257 °C. `COc1cc2c(cc1OC)CN(CCCCc1ccc(NC(=O)c3cccc4c(=O)c5cccc(C)c5[nH]c34)cc1)CC2` displayed a melting point of 140 °C. `CCOC(=O)C1=C(COCCNCC(N)=O)NC(C)=C(C(=O)OC)C1c1ccccc1Cl` (centres undefined) came in with a melting point of 126 to 129 °C. In the case of `Oc1ccc2nc(-c3ccc(O)c(F)c3)cc(C#Cc3ccccc3)c2c1`, the melting point was 125 to 129 °C.

Take `Cc1cc(-c2ccc(Cl)cc2)nc(-n2cnc(-c3cccc(S(C)(=O)=O)c3)c2)n1`: the melting point was found to be 233 °C. As to `O=C1Cc2c(cc3ccccc3c2Cl)C(c2ccccc2F)N1` (centres undefined), the melting point lay in the range of 206 to 209 °C. Take `CC(=O)Oc1cc(S(=O)(=O)Oc2ccc(C(=O)c3c(Cc4ccccc4)oc(C)c3C)cc2C2CCCC2)ccc1C(=O)O`: the melting point lay within 55 to 90 °C. As for `Cc1ccc(-c2cc(CNc3cc(CNc4cc(-c5ccc(C)cc5)[nH]n4)n[nH]3)n[nH]2)cc1`, the figure is 167 °C; as for `CN1CCC(O)(c2ccccc2F)CC1`, 127 to 129 °C. Turning to `CC(C)NC(=O)C(F)(F)C(F)(F)F`, the melting point was 54 to 56 °C. Compound `CSC1NC(=O)N(C)C(=O)N1N` (centres undefined) registered a melting point of 174 to 175 °C. In the case of `Fc1ccc(Oc2ccc(-c3nc4ccccc4[nH]3)cc2)cc1`, the melting point was in the range of 243 to 245 °C. For `COC(=O)c1ccc(C(=O)c2cc3c(cc2C)OC2(C)C4CCC(C)(C4)C32C)cc1` (centres undefined), the melting point fell in the range of 140 to 142 °C. The compound `Cn1nc(-c2cc(O)c(Cl)cc2F)c(Cl)c1C(F)(F)F` registered a melting point of 123 to 126 °C. Consider `COc1cc2nc(S(=O)Cc3cc(N(C)C)c(Cl)cn3)[nH]c2cc1OC` (centres undefined), for which the melting point was 164 to 165 °C.

Compound `COC(=O)Cc1c(C)nn(-c2ccccc2)c1C` registered a melting point of 63 to 64 °C. `OC(CNC1CCc2ccccc2C1)COc1ccccc1Cl` (centres undefined) had a melting point of 98 to 101 °C. Consider `O=c1ccc2cccc(Oc3cc(-c4ccc(C(F)(F)F)cc4)ncn3)c2[nH]1`, for which the melting point came to 312 °C. Take `Cn1nc2c(N)nc3c(c2c1CCC1CCCCC1)CCCC3`: the melting point fell in the range of 230 to 231 °C. On to `CC(O)CC(=O)c1cccc2c1nc(-c1c(F)cccc1F)n2Cc1c(F)cccc1F` (centres undefined), for which the melting point was in the range of 149 to 150 °C.

As to `O=C(O)COCC(=O)OCC1CN(C(=O)Oc2ccccc2)CCC1c1ccc(F)cc1` (centres undefined), the melting point lay within 144 to 146 °C. Compound `COCc1cc(C(=O)NC(C)(C)C)c(C(=O)OC)cn1` registered a melting point of 138 to 142 °C. The compound `CC(=O)OC1CSC(Oc2ccc(-c3ccsc3)nc2)C(OC(C)=O)C1OC(C)=O` (centres undefined) returned a melting point of 158 °C. As for `CC1CC(=O)N(c2cc(C(C)(C)C)c(O)c(C(C)(C)C)c2)C1` (centres undefined), the figure is 157 to 159 °C. The result for `O=Cc1c2ccccc2cc2cccc(SCCO)c12` reads 103 to 104 °C; that for `CC(=O)OCc1cc(N)ccc1N1C(=O)c2ccc(Cl)cc2C1=O`, 136 to 138 °C; that for `COC(=O)C1=C(C)NC(C)=C(C(=O)OCCCCN(C)CCC(c2ccccc2)c2ccccc2)C1c1cccc([N+](=O)[O-])c1` (centres undefined), 91 to 103 °C. In turn, `O=C(CCl)NC(c1ccccc1)C(O)c1ccccc1` (centres undefined) displayed a melting point of 166 to 169 °C. `CN(C)N=Nc1cc(-c2ccccc2)sc1C(N)=O` came in with a melting point of 220 to 222 °C.

In turn, `Cc1nc2n(C)ncn2c(=O)c1CCO` gave a melting point of 215 °C. On to `ClCc1csc(N2CCOCC2)n1`, for which the melting point was 87 to 88 °C. As for `Brc1ccc2c(c1)C(c1ccncc1)=Cc1ccccc1O2`, the melting point fell in the range of 195 to 197 °C.

The compound `CN(c1cccc2cc(C3=NCC(C)(C#N)S3)[nH]c12)S(=O)(=O)c1cccs1` (centres undefined) yielded a melting point of 178 to 179 °C. The result for `CC(C)(C)OC(=O)N1CC(=O)Nc2cccc(F)c21` reads 155 to 156 °C; that for `Cc1cccc(C(=O)CCSC(=S)Nc2ccc(Cl)cn2)c1`, 153 °C; that for `O=C1C=CC(O)(c2cc3cc(F)ccc3n2S(=O)(=O)c2ccccc2)C=C1`, 166 to 167 °C. The result for `NC(=O)c1ccc2c(O)cncc2c1` reads more than 250 °C.

A word on the melting point: it is the temperature of the solid-liquid transition.

These data come from a melting point compilation (Tetko et al.; mined from patent text by program, amines drawn as free bases though some values may be those of a salt).
